Test results taken from patent publication US20170266257A1, “METHODS OF TREATING TRAUMATIC BRAIN INJURY” (OXEIA BIOPHARMACEUTICALS, INC., priority 2014, published 2017).

Columns and labels:
GHS-R = GHS-R (Homo sapiens, UniProt Q92847); experiment: cell based assay of GHS-R antagonist activity (Table 4)
[1] = tested on: rat model of Parkinson's disease; conditions: cited from earlier work
ischemic brain injury = conditions: after ischemic brain injury; cited from earlier work

Chain of GHS-R (Q92847 whole entry): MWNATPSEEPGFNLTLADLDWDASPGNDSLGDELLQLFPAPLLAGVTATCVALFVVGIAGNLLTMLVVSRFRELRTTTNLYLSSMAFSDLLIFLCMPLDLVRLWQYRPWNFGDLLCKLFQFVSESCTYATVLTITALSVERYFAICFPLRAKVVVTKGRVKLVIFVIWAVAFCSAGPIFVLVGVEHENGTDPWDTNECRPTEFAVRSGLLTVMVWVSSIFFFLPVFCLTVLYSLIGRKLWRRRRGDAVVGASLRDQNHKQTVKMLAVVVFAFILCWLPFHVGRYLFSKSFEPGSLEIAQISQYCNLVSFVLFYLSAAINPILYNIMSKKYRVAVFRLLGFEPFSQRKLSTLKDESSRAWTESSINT

Compound | Ki (GHS-R) [nM] | motor function [1] | neuroprotection (ischemic brain injury)
3-Diethylamino-propane-1-sulfonic acid {(R)-1-[3-(5-bromo-pyridin-3-yl)-[1,2,4]oxadiazol-5-yl]-phenyl-propyl}-amide [Compound 103] | 100 to 500 | – | –
CCN(CC)CCCS(=O)(=O)N[C@H](CCc1ccccc1)c1nc(-c2cncn2C)n[nH]1 [Compound 135] | < 100 | – | –
C=CC[C@]12CCCN1C(=O)CNC2=O [NNZ-2591, cyclo-L-glycyl-L-2-allylproline] | – | improves motor function | neuroprotective
